Experiment in all cases: NCI-60 cell line screen, 48 h
The test system of assay [1] is ACHN renal.
The subject of assay [2] is BT-549 breast.
Assay [3] deals with HCC-2998 colon.
Assay [4] relates to HS 578T breast.
For assay [5], the system named is KM12 colon.
Assay [6] has as its system OVCAR-3 ovarian.
Assay [7] deals with OVCAR-8 ovarian.
Assay [8] has as its system SK-OV-3 ovarian.
The test system of assay [9] is SR leukemia.
Assay [10] has as its system DMS 273 small cell lung.
For assay [11], the system named is HOP-18 NSCLC.
Assay [12] has as its system KM20L2 colon.

Structures are written as SMILES.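 Test compounds were applied to cells in 96-well plates for 48 hours at 5 doses. The concentration for 50% growth inhibition is given as GI50. TGI: total growth inhibition.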

With `CCCCC(CC)C(=O)Oc1ccc(C(=O)c2ccccc2)c(O)c1` (stereo unspecified), the TGI is above 100 µM in assay [1]; above 100 µM in [2]; above 100 µM in assay [3]; 64.9 µM in assay [4]; above 100 µM in assay [5]; above 100 µM in assay [6]. The TGI in assay [7] and in [8] was above 100 µM throughout.
As to `C[C@@]12CC[C@@H](O)C[C@@H]1CC[C@H]1[C@H]2CC[C@@]2(C)[C@H](c3ccc(=O)oc3)CC[C@@]12O`, the GI50 in assay [2] is below 0.01 µM; in [3], 0.0124 µM; in assay [4], below 0.01 µM; in [5] it was below 0.0123 µM; in assay [6], below 0.01 µM; in [8], below 0.0118 µM. The TGI in [2] is 0.0104 µM; in assay [3], 0.142 µM; in assay [4], 0.0351 µM; in assay [5], 0.153 µM; in assay [6], 0.0268 µM; in assay [8], 0.0451 µM.
As for `CCOC(=O)c1sc2nc(SC)nc3c2c1NC(=O)CN3c1ccc(F)cc1`, the TGI in [1] was 93.4 µM; in [2] it was 43.3 µM; in assay [3] it was above 100 µM; in assay [4], 53.3 µM; in assay [5], above 100 µM; in [6], above 100 µM. For the same molecule, the TGI is 69.1 µM in assay [7], 57.7 µM in assay [8] and above 100 µM in [9].
Take `CCCCCCCCCCCCCCCCCCN(C)CC(COC)OP(=O)([O-])OCC[N+](C)(C)C` (stereo unspecified): the TGI in assay [1] was found to be 15.6 µM; in assay [2], 6.75 µM; in assay [10], 2.45 µM; in assay [3], 3.07 µM; in assay [11], 9.91 µM; in assay [4], 17.8 µM. Also, the TGI in [5] worked out at 1.62 µM; in assay [12], 5.94 µM; in assay [6], 11.2 µM; in [7], 14.2 µM; in [8] it was 25.1 µM; in assay [9] it was 8.55 µM.
As to `O=C1c2cc3c(cc2[C@@H]2C(O)[C@H]4O[C@H]4C4CCN1C42)OCO3` (stereo partly specified), the TGI in [1], in assay [10], in assay [3], in assay [5], in assay [12] and in assay [6] was above 37.5 µM in each case. For the same molecule, the TGI in assay [7], in [8] and in [9] was above 37.5 µM throughout.
As to `Cc1ccc(C(=O)NC2C(=O)NC(C(C)C)C(=O)N3CCCC3C(=O)N(C)CC(=O)N(C)C(C(C)C)C(=O)OC2C)c2c1Oc1c(c(C(=O)NC3C(=O)NC(C(C)C)C(=O)N4CCCC4C(=O)N(C)CC(=O)N(C)C(C(C)C)C(=O)OC3C)c3nc(-c4ccccc4)c(=O)oc3c1C)N2` (stereo unspecified), the TGI in assay [1] was 0.801 µM; in assay [2] it was 0.0224 µM; in assay [3], 0.00428 µM; in assay [4] it was 0.00548 µM; in assay [5], 0.00317 µM; in [7] it was 0.0273 µM. In assay [8], the TGI was 16.1 µM.
In the case of `c1ccc(-c2cc3nc4ccccc4nc3cc(-c3ccccc3)[nH][nH]2)cc1`, the TGI in assay [1] was 77.9 µM; in assay [2], above 100 µM; in [3], above 100 µM; in [4], above 100 µM; in assay [5], above 100 µM; in assay [6], 64.7 µM. In addition, the TGI was above 100 µM in [7], 39.5 µM in [8] and above 100 µM in assay [9].
Regarding `Nc1[nH]c(=O)nc2c1cnn2COCCO`, the TGI in [1] is above 100 µM; in assay [10], above 100 µM; in assay [11] it was above 100 µM; in [5] it was above 100 µM; in assay [12] it was 6.85 µM; in [7] it was above 100 µM. Moreover, the TGI in [9] is above 100 µM.
Take `C/C=C\C1OC1(C)c1cc(=O)c2c(C)cc3c(c2o1)C(=O)c1c(O)c(C2CC(C)(N(C)C)C(OC(C)=O)C(C)O2)cc(C2CC(N(C)C)C(O)C(C)O2)c1C3=O` (stereo unspecified): the TGI in assay [1] is 0.00575 µM; in assay [2] it was 0.0221 µM; in assay [3] it was 0.00646 µM; in [4] it was 0.0223 µM; in assay [5], 0.0109 µM; in assay [6] it was 0.0365 µM. Also, the results for the TGI in [7] and in assay [8] were 0.0177 µM and 0.0498 µM, respectively.
Turning to `CC1CC(C)(O)C2C3(C)CCCC2(COC3=O)C12CCC1(CCOC1=O)O2` (stereo unspecified), the TGI in [10], in assay [3], in [11], in [5], in assay [12] and in assay [6] was above 250 µM in each case. The TGI in [7] and in assay [8] was above 250 µM throughout.
As to `COc1cc2cc(C(=O)N3CC(CCl)c4ccc(NO)cc43)[nH]c2c(OC)c1OC` (stereo unspecified), the TGI in assay [1] was found to be 0.723 µM; in assay [2], 1.05 µM; in assay [3], 1.07 µM; in assay [4], 0.954 µM; in assay [5], 16.3 µM; in assay [6], 0.535 µM. In addition, the TGI was 11.5 µM in assay [7], 3.01 µM in assay [8] and above 100 µM in assay [9].
`CCOC(=O)C(C(=O)OCC)c1cc(-c2cc3ccccc3o2)oc(=O)c1C#N`: the TGI in assay [1] is above 100 µM; in assay [10] it was 60.1 µM; in [3], 46.9 µM; in assay [11], 65.4 µM; in assay [5], above 100 µM; in assay [12] it was 37.5 µM. The TGI in [7] is 49.1 µM; in assay [9], 66.3 µM.
Consider `CC(C)N(CC(=O)O)CC(=O)O`, for which the TGI in assay [1], in assay [2], in assay [3], in assay [4], in [5] and in assay [6] was above 100 µM throughout. Besides, the TGI in assay [7], in assay [8] and in assay [9] was above 100 µM throughout.
For the molecule `O=C(O)C1=C(CO)Oc2cc3c(cc2C1c1ccc2c(c1)OCO2)OCO3` (stereo unspecified), the TGI in [1], in [10], in [11], in assay [12], in assay [6] and in assay [7] was above 100 µM in each case. Also, the TGI in [8] was above 100 µM.
Take `O=P1(Oc2ccc(Cl)cc2Cl)Oc2cc3ccccc3cc2O1`: the TGI was above 100 µM in [10]; 59.6 µM in assay [3]; above 100 µM in [11]; above 100 µM in assay [5]; above 100 µM in assay [12]; above 60.7 µM in assay [6]. In addition, the TGI in assay [7] and in assay [8] was above 100 µM throughout.
For the molecule `C=C(C)[C@@H]1CC[C@]2(C(=O)O)CC[C@]3(C)[C@H](CC[C@@H]4[C@@]5(C)C/C(=C/c6ccco6)C(=O)C(C)(C)[C@@H]5CC[C@]43C)[C@@H]12`, the GI50 in assay [4] is 6.66 µM; in assay [6], 1.72 µM; in assay [7], 3.5 µM. In addition, the TGI in assay [4] is above 100 µM; in assay [6], 3.58 µM; in assay [7] it was above 100 µM.

The values are drawn from PubChem BioAssay (NCI).
